Results: patent US20050009924A1 (priority 2003, published 2005)

What was measured:
[1] = test system: transcriptional activity of hTERT; assay: SEAP reporter assay of hTERT expression, PhTERT-SEAP (H1299); type: cell-based, human
In short: (§1)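 Read-out: rate of absorbance rise at 405 nm from p-nitrophenyl phosphate (12 mM final) hydrolysis by secreted alkaline phosphatase in heat-treated (65° C, 10 min) culture medium. Drugs at varying amounts were applied for 24 h after a 24 h pre-culture at 37° C.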

[2] = test system: human hepatoma G2 cells; assay: Cytotoxicity assay (XTT colorimetric), Hep G2; type: cell-based; conditions: Homo sapiens, HepG2; 48 h of drug exposure
[3] = test system: transcriptional activity of hTERT; assay: SEAP reporter assay of hTERT expression, PhTERT-SEAP (hTERT-BJ1); type: cell-based, human
In short: as §1

[4] = test system: rat glioma C6 cells; assay: Cytotoxicity assay (XTT colorimetric), C6 cells; type: cell-based; conditions: Rattus norvegicus, C6; 48 h of drug exposure
[5] = test system: iron-induced lipid peroxidation in rat brain homogenates; assay: Iron-induced lipid peroxidation in rat brain homogenates; conditions: 10 mM; mean percent inhibition (Table 3)
[6] = MTT relative viability, PhTERT-SEAP (hTERT-BJ1) cells; conditions: human
[7] = MTT relative viability, PhTERT-SEAP (H1299) cells; conditions: human
[8] = test system: hepatitis B virus transfected hepatoma cell lines, HepG 2.2.15 cells; assay: Cytotoxicity assay, 2.2.15 cells; type: cell-based, human; conditions: Homo sapiens, HepG2.2.15; 48 h of drug exposure
[9] = Homo sapiens, NCI-H1299, 2.1 μM, H1299, read-out: Relative SEAP activity (%)
[10] = Homo sapiens, NCI-H1299, 21 μM, H1299, read-out: Relative SEAP activity (%)
[11] = Homo sapiens, NCI-H1299, H1299, read-out: Relative SEAP activity (%)
[12] = Homo sapiens, 2.1 μM, hTERT-BJ1, read-out: Relative SEAP activity (%)
[13] = Homo sapiens, 21 μM, hTERT-BJ1, read-out: Relative SEAP activity (%)
[14] = Homo sapiens, hTERT-BJ1, read-out: Relative SEAP activity (%)
[15] = hTERT-BJ1 cells, stable PhTERT-SEAP reporter clone

**Q.** With `Cc1cccc(C(=O)Oc2cccc3c2C(=O)c2cccc(OC(=O)c4cccc(C)c4)c2C3=O)c1` [IIIk, 1,5-Bis(3-toluoyloxy)-anthraquinone] as the compound, how does the activity at 2.1 µM [1, 9] read?
**A.** 104 ± 5.4%

**Q.** And the activity at 21 µM [1, 10]?
**A.** 116 ± 12.8%

**Q.** What about the activity at 210 µM [1, 11] of the same compound?
**A.** 110 ± 16.4%

**Q.** What about the melting point of the same compound?
**A.** 269 to 270 °C

**Q.** And the IC50 [2]?
**A.** 18.1 ± 1.5 µM

**Q.** What about the activity at 2.1 µM [3, 12] of the same compound?
**A.** 141 ± 10.5%

**Q.** And the activity at 21 µM [3, 13]?
**A.** 124 ± 15.6%

**Q.** What about the activity at 210 µM [3, 14] of the same compound?
**A.** 86 ± 17.2%

**Q.** What about the IC50 [4] of the same compound?
**A.** 30.1 ± 3.3 µM

**Q.** And the “Inhibition of LP(10 mM)” value [5]?
**A.** −32 ± 1.5^ %

**Q.** What about the viability at 48 h, 2.1 µM [6] of the same compound?
**A.** 98 ± 9.4%

**Q.** What about the viability at 48 h, 21 µM [6] of the same compound?
**A.** 54 ± 7.5%

**Q.** And the viability at 48 h, 210 µM [6]?
**A.** 47 ± 4.8%

**Q.** And the viability at 48 h, 2.1 µM [7]?
**A.** 26 ± 3.7%

**Q.** What about the viability at 48 h, 21 µM [7] of the same compound?
**A.** 28 ± 5%

**Q.** What about the viability at 48 h, 210 µM [7] of the same compound?
**A.** 29 ± 3.3%

**Q.** Which activity at 2.1 µM [1, 9] does the source give for `Cc1ccc(C(=O)Oc2cccc3c2C(=O)c2cccc(OC(=O)c4ccc(C)cc4)c2C3=O)cc1` [IIIl, 1,5-Bis(4-toluoyloxy)-anthraquinone] here?
**A.** 98 ± 1.1%

**Q.** And the activity at 21 µM [1, 10]?
**A.** 95 ± 4.3%

**Q.** What about the activity at 210 µM [1, 11] of the same compound?
**A.** 95 ± 8.9%

**Q.** What about the melting point of the same compound?
**A.** 331 to 332 °C

**Q.** And the IC50 [2]?
**A.** 9.3 ± 0.9 µM

**Q.** What about the activity at 2.1 µM [3, 12] of the same compound?
**A.** 130 ± 8.8%

**Q.** And the activity at 21 µM [3, 13]?
**A.** 126 ± 13.3%

**Q.** And the activity at 210 µM [3, 14]?
**A.** 99 ± 15.8%

**Q.** What about the IC50 [4] of the same compound?
**A.** 37.6 ± 4.1 µM

**Q.** And the “Inhibition of LP(10 mM)” value [5]?
**A.** 33 ± 1.2%

**Q.** And the viability at 48 h, 2.1 µM [6]?
**A.** 102 ± 13.9%

**Q.** And the viability at 48 h, 21 µM [6]?
**A.** 98 ± 6.3%

**Q.** What about the viability at 48 h, 210 µM [6] of the same compound?
**A.** 56 ± 6.2%

**Q.** What about the viability at 48 h, 2.1 µM [7] of the same compound?
**A.** 61 ± 5.8%

**Q.** What about the viability at 48 h, 21 µM [7] of the same compound?
**A.** 33 ± 2.8%

**Q.** What about the viability at 48 h, 210 µM [7] of the same compound?
**A.** 32 ± 5.7%

**Q.** With `CCN(CC)CC(=O)Nc1ccc(NC(=O)CN(CC)CC)c2c1C(=O)c1ccccc1C2=O` [VI33, 1,4-Bis[2-(diethylamino)acetamido]-9,10-anthracenedione] as the compound, how does the SEAP/vibility ([1]; 2.1 μM, PhTERT-SEAP(hTERT-H1299)) read?
**A.** 0.94

**Q.** What about the SEAP/vibility ([1]; 21 μM, PhTERT-SEAP(hTERT-H1299)) of the same compound?
**A.** 0.99

**Q.** What about the SEAP/vibility ([1]; 215 μM, PhTERT-SEAP(hTERT-H1299)) of the same compound?
**A.** 1.11

**Q.** And the activity at 2.1 µM ([1]; Homo sapiens, NCI-H1299, 2.1 μM, PhTERT-SEAP(hTERT-H1299), read-out: Relative SEAP activity (%))?
**A.** 98 ± 3.3%

**Q.** What about the activity at 21 µM ([1]; Homo sapiens, NCI-H1299, 21 μM, PhTERT-SEAP(hTERT-H1299), read-out: Relative SEAP activity (%)) of the same compound?
**A.** 86 ± 7.4%

**Q.** What about the activity at 215 µM ([1]; Homo sapiens, NCI-H1299, 215 μM, PhTERT-SEAP(hTERT-H1299), read-out: Relative SEAP activity (%)) of the same compound?
**A.** 48 ± 2.3%

**Q.** And the melting point?
**A.** 85 to 86 °C

**Q.** What about the IC50 [2] of the same compound?
**A.** 0.65 µM

**Q.** And the SEAP/vibility ([3]; 2.1 μM, PhTERT-SEAP (hTERT-BJ1))?
**A.** 1.06

**Q.** And the SEAP/vibility ([3]; 21 μM, PhTERT-SEAP (hTERT-BJ1))?
**A.** 1.40

**Q.** What about the SEAP/vibility ([3]; 215 μM, PhTERT-SEAP (hTERT-BJ1)) of the same compound?
**A.** 2.61

**Q.** And the activity at 2.1 µM ([3]; Homo sapiens, 2.1 μM, PhTERT-SEAP (hTERT-BJ1), read-out: Relative SEAP activity (%))?
**A.** 111 ± 24.4%

**Q.** What about the activity at 21 µM ([3]; Homo sapiens, 21 μM, PhTERT-SEAP (hTERT-BJ1), read-out: Relative SEAP activity (%)) of the same compound?
**A.** 120 ± 25.6%

**Q.** And the activity at 215 µM ([3]; Homo sapiens, 215 μM, PhTERT-SEAP (hTERT-BJ1), read-out: Relative SEAP activity (%))?
**A.** 83 ± 19%

**Q.** What about the IC50 [4] of the same compound?
**A.** 4.46 µM

**Q.** And the viability at 48 h, 2.1 µM [6, 15]?
**A.** 105 ± 2.8%

**Q.** And the viability at 48 h, 21 µM [6, 15]?
**A.** 86 ± 3.5%

**Q.** What about the viability at 48 h, 215 µM [6, 15] of the same compound?
**A.** 32 ± 13.1%

**Q.** What about the viability at 48 h, 2.1 µM [7] of the same compound?
**A.** 105 ± 4.9%

**Q.** And the viability at 48 h, 21 µM [7]?
**A.** 87 ± 3.9%

**Q.** What about the viability at 48 h, 215 µM [7] of the same compound?
**A.** 44 ± 2.7%

**Q.** And the IC50 [8]?
**A.** 13 µM

**Q.** For `CCN(CC)C(C)C(=O)Nc1ccc(NC(=O)C(C)N(CC)CC)c2c1C(=O)c1ccccc1C2=O` (stereo not shown) [VI35, 1,4-Bis[2-(diethylamino)propionamido]-9,10-anthracenedione], which SEAP/vibility ([1]; 2.0 μM, PhTERT-SEAP(hTERT-H1299)) is on record?
**A.** 1.00

**Q.** What about the SEAP/vibility ([1]; 20 μM, PhTERT-SEAP(hTERT-H1299)) of the same compound?
**A.** 1.35

**Q.** And the SEAP/vibility ([1]; 203 μM, PhTERT-SEAP(hTERT-H1299))?
**A.** 0.98

**Q.** And the activity at 2 µM ([1]; Homo sapiens, NCI-H1299, 2.0 μM, PhTERT-SEAP(hTERT-H1299), read-out: Relative SEAP activity (%))?
**A.** 96 ± 14.3%

**Q.** And the activity at 20 µM ([1]; Homo sapiens, NCI-H1299, 20 μM, PhTERT-SEAP(hTERT-H1299), read-out: Relative SEAP activity (%))?
**A.** 104 ± 6%

**Q.** What about the activity at 203 µM ([1]; Homo sapiens, NCI-H1299, 203 μM, PhTERT-SEAP(hTERT-H1299), read-out: Relative SEAP activity (%)) of the same compound?
**A.** 73 ± 11.7%

**Q.** And the melting point?
**A.** 175 to 177 °C

**Q.** What about the IC50 [2] of the same compound?
**A.** 2.02 µM

**Q.** What about the SEAP/vibility ([3]; 2.0 μM, PhTERT-SEAP (hTERT-BJ1)) of the same compound?
**A.** 0.41

**Q.** What about the SEAP/vibility ([3]; 20 μM, PhTERT-SEAP (hTERT-BJ1)) of the same compound?
**A.** 0.94

**Q.** And the SEAP/vibility ([3]; 203 μM, PhTERT-SEAP (hTERT-BJ1))?
**A.** 0.61

**Q.** And the activity at 2 µM ([3]; Homo sapiens, 2.0 μM, PhTERT-SEAP (hTERT-BJ1), read-out: Relative SEAP activity (%))?
**A.** 40 ± 14.5%

**Q.** What about the activity at 20 µM ([3]; Homo sapiens, 20 μM, PhTERT-SEAP (hTERT-BJ1), read-out: Relative SEAP activity (%)) of the same compound?
**A.** 49 ± 9.3%

**Q.** And the activity at 203 µM ([3]; Homo sapiens, 203 μM, PhTERT-SEAP (hTERT-BJ1), read-out: Relative SEAP activity (%))?
**A.** 22 ± 6.6%

**Q.** What about the IC50 [4] of the same compound?
**A.** 18.1 µM

**Q.** What about the viability at 48 h, 2 µM [6, 15] of the same compound?
**A.** 97 ± 3.9%

**Q.** What about the viability at 48 h, 20 µM [6, 15] of the same compound?
**A.** 52 ± 7.2%

**Q.** And the viability at 48 h, 203 µM [6, 15]?
**A.** 36 ± 5.8%

**Q.** What about the viability at 48 h, 2 µM [7] of the same compound?
**A.** 96 ± 7.9%

**Q.** What about the viability at 48 h, 20 µM [7] of the same compound?
**A.** 77 ± 7.2%

**Q.** And the viability at 48 h, 203 µM [7]?
**A.** 75 ± 4.6%

**Q.** And the IC50 [8]?
**A.** 8.57 µM
